Source: patent US20210378995A1, “METHODS AND TOPICAL PHARMACEUTICAL COMPOSITIONS FOR THE TREATMENT OF SKIN MICROVASCULAR DYSFUNCTION” (INSERM (INSTITUT NATIONAL DE LA SANTÉ ET DE LA RECHERCHE …, priority 2018, published 2021)

Columns and labels:
[1] = Percutaneous passage of GSK2256294 topical formulations in Franz's cells on pig ear skin (Example 5); type: in vitro ADME
Method: First GSK2256294 topical formulations used DMSO and water 50/50% as vehicle. The experiments were conducted with Franz's cell using the skin of a pig's ear. The donor compartment was filled by an 20 μL of solution with a concentration between 100 to 400 μg/g of GSK2256294. The receptor medium was constituted by 4.5 mL of PBS, was at 32° C. and under magnetic stirring. Samples from the receptor compartment were collected at different times over 24 hours to determine the passage flow of GSK2256294. Second GSK2256294 topical formulation using alcohol, isopropanol, propylene glycol and DMSO 50/50% as vehicle with a GSK2256294's concentration at 200 μg/g were tested in the same conditions. Samples were then frozen at −20° C. The […] quantification was realized by HPLC/MS/MSS.

[2] = Percutaneous absorption using Franz's cells on pigskin, influence of the solvent (Example 1)
Method: The skin of a pig's ears was chosen for the experiments as it is very similar to that of a human skin. […] The receptor compartment contained 4.5 mL of PBS and was under magnetic stirring. […] Samples were frozen at −20° C.

[3] = Solubility in paraffin wax vehicle; type: physicochemical; details: paraffin wax vehicle could not be used
[4] = GSK2256294 4 μg/mL, vehicle DMSO/water 50%/50%
[5] = GSK2256294 40 μg/mL, 'with DMSO'
[6] = GSK2256294 40 μg/mL, vehicle DMSO/water 50%/50%
[7] = GSK2256294, vehicle water at pH3
[8] = GSK2256294, vehicle water at pH3/alcohol 50/50%

flow between 4 and 12 h ([1]; DMSO/water 50/50%, GSK2256294 200 μg/g): 64.83 ng/h/cm^2
flow between 4 and 12 h ([1]; DMSO/water 50/50%, lower end of GSK2256294 concentration range 100 to 400 μg/g): 41.92 ng/h/cm^2
flow between 4 and 12 h ([1]; DMSO/water 50/50%, upper end of GSK2256294 concentration range 100 to 400 μg/g): 102.26 ng/h/cm^2
flow between 4 and 12 h ([1]; alcohol/water 50/50%, GSK2256294 200 μg/g): 55.9 ng/h/cm^2
flow between 4 and 12 h ([1]; isopropanol/water 50/50%, GSK2256294 200 μg/g): 74.38 ng/h/cm^2
flow between 4 and 12 h ([1]; propylene glycol/water 50/50%, GSK2256294 200 μg/g): 48.49 ng/h/cm^2
absorbed and released by the pigskin over 24 hrs [2, 4]: 10.5%
percutaneous absorption flow [2, 4]: 21.9 ng/cm^2/h
passage rate [2, 5]: 7.04%
percutaneous absorption flow [2, 5]: 134.1 ng/cm^2/h
absorbed and released by the pigskin over 24 hrs [2, 6]: 9.02%
percutaneous absorption flow [2, 6]: 167.4 ng/cm^2/h
percutaneous absorption flow ([2]; GSK2256294, vehicle PEG400): No flow
passage rate [2, 7]: 8.31%
percutaneous absorption flow [2, 7]: 167.4 ng/cm^2/h
passage rate [2, 8]: 3.52%
percutaneous absorption flow [2, 8]: 38.6 ng/cm^2/h
solubility in paraffin wax [3]: lack of solubility
SMILES: CNc1nc(C)nc(N[C@H]2CCC[C@@H](C(=O)NCc3ccc(C#N)cc3C(F)(F)F)C2)n1 [GSK2256294, (1R,3S)—N-[[4-cyano-2-(trifluoromethyl)phenyl]methyl]-3-[[4-methyl-6-(methylamino)-1,3,5-triazin-2-yl]amino]cyclohexane-1-carboxamide]
